Data published in US10941157B2, “Pesticidal compositions and uses thereof” (Gilead Apollo, LLC, priority 2015, dated 2021).
Values after ≈ are worked out from the molar mass of the structure shown. Read-outs that look alike come from different tables or passages of the source.

How the values were obtained:
Type in all cases: cell-based
Rhizoctonia solani (Rs) = experiment: In vitro pathogen growth inhibition assay, Rs (mycelial plugs); conditions: Rhizoctonia solani, 48 h
Method in brief: (§1)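 Spores of Dm, Fv and Pc were diluted in 17% V8 liquid medium; Rs used 1.5 mm mycelial plugs in ¼ PDB. Compounds from 2.5 mg/ml DMSO stocks were combined with inoculum, growth was read by OD600 at 24 and 48 h with blank subtraction, and the reported value is the concentration giving ≥90% inhibition.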

Diplodia maydis (Dm) = experiment: In vitro pathogen growth inhibition assay, Dm; conditions: Stenocarpella maydis, 48 h
Method in brief: as §1

Septoria tritici (St) = experiment: In vitro pathogen growth inhibition assay, St; conditions: Zymoseptoria tritici, 48 h
Method in brief: (§2)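 Spores in 17% V8 liquid medium, or 1.5 mm Rs mycelial plugs in ¼ PDB, incubated with compound; final concentration checked by OD600 for precipitation. OD readings at 24 and 48 h, blank-subtracted, plus visual ratings; value is concentration giving ≥90% growth inhibition.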

[1] = tested on: Phytophthora capsici (Pc); experiment: In vitro pathogen growth inhibition assay, Pc; conditions: 48 h
Method in brief: as §1

[2] = tested on: Collectotrichum graminicola (Cg); experiment: In vitro pathogen growth inhibition assay, Cg; conditions: 48 h
Method in brief: as §2

[3] = tested on: Fusarium moniliforme (Fm); experiment: In vitro pathogen growth inhibition assay, Fm; conditions: Fusarium verticillioides
Method in brief: as §2

Botrtyis cinerea (Bc) = experiment: In vitro pathogen growth inhibition assay, Bc; conditions: 48 h
Method in brief: as §2

[4] = tested on: Fusarium virguliforme (Fv); experiment: In vitro pathogen growth inhibition assay, Fv
Method in brief: as §1

[5] = ≥90% growth inhibition, mycelial plugs, 48 hours, vs 2% DMSO control, read-out: Compound Concentration (ppm) sufficient for ≥90% inhibition of Rs
[6] = ≥90% growth inhibition, 48 hours, vs 2% DMSO control, read-out: Compound Concentration (ppm) sufficient for ≥90% inhibition of Dm
[7] = ≥90% growth inhibition, 48 hours, vs 2% DMSO control, read-out: Compound Concentration (ppm) sufficient for ≥90% inhibition of St
[8] = ≥90% growth inhibition, 48 hours, vs 2% DMSO control, read-out: Compound Concentration (ppm) sufficient for ≥90% inhibition of Pc
[9] = ≥90% growth inhibition, 48 hours, vs 2% DMSO control, read-out: Compound Concentration (ppm) sufficient for ≥90% inhibition of Cg
[10] = ≥90% growth inhibition, 48 hours, vs 2% DMSO control, read-out: Compound Concentration (ppm) sufficient for ≥90% inhibition of Fm
[11] = ≥90% growth inhibition, 48 hours, vs 2% DMSO control, read-out: Compound Concentration (ppm) sufficient for ≥90% inhibition of Bc
[12] = ≥90% growth inhibition, 48 hours, vs 2% DMSO control, read-out: Compound Concentration (ppm) sufficient for ≥90% inhibition of Fv
[13] = ≥90% inhibition, mycelial plugs, 48 hours vs 2% DMSO control, read-out: Compound Concentration (ppm) sufficient for ≥90% inhibition of growth, Rs
[14] = ≥90% inhibition, 48 hours vs 2% DMSO control, read-out: Compound Concentration (ppm) sufficient for ≥90% inhibition of growth, Dm
[15] = ≥90% inhibition, 48 hours vs 2% DMSO control, read-out: Compound Concentration (ppm) sufficient for ≥90% inhibition of growth, St
[16] = ≥90% inhibition, 48 hours vs 2% DMSO control, read-out: Compound Concentration (ppm) sufficient for ≥90% inhibition of growth, Pc
[17] = ≥90% inhibition, 48 hours vs 2% DMSO control, read-out: Compound Concentration (ppm) sufficient for ≥90% inhibition of growth, Cg
[18] = ≥90% inhibition, 48 hours vs 2% DMSO control, read-out: Compound Concentration (ppm) sufficient for ≥90% inhibition of growth, Fm
[19] = ≥90% inhibition, 48 hours vs 2% DMSO control, read-out: Compound Concentration (ppm) sufficient for ≥90% inhibition of growth, Bc
[20] = ≥90% inhibition, 48 hours vs 2% DMSO control, read-out: Compound Concentration (ppm) sufficient for ≥90% inhibition of growth, Fv

IC90 (Rhizoctonia solani (Rs); [5]) [µg/mL] | IC90 (Diplodia maydis (Dm); [6]) [µg/mL] | IC90 (Septoria tritici (St); [7]) [µg/mL] | IC90 [1, 8] [µg/mL] | IC90 [2, 9] [µg/mL] | IC90 [3, 10] [µg/mL] | IC90 (Botrtyis cinerea (Bc); [11]) [µg/mL] | IC90 [4, 12] [µg/mL] | IC90 (Rhizoctonia solani (Rs); [13]) [µg/mL] | IC90 (Diplodia maydis (Dm); [14]) [µg/mL] | IC90 (Septoria tritici (St); [15]) [µg/mL] | IC90 [1, 16] [µg/mL] | IC90 [2, 17] [µg/mL] | IC90 [3, 18] [µg/mL] | IC90 (Botrtyis cinerea (Bc); [19]) [µg/mL] | IC90 [4, 20] [µg/mL] | Compound | also measured
– | – | – | – | – | – | – | – | 10 (≈ 16.8 µM) | 10 (≈ 16.8 µM) | > 50 | > 50 | ≥ 2 | 0.08 (≈ 0.134 µM) | 0.4 (≈ 0.67 µM) | 10 (≈ 16.8 µM) | CCNC(=O)C(C)(C)n1c(=O)c2c(C)c(-n3nccn3)sc2n(C[C@H](OC2CCOCC2)c2ccccc2OC)c1=O [Compound I-032] | –
– | – | – | – | – | – | – | – | 0.4 (≈ 0.698 µM) | 0.4 (≈ 0.698 µM) | 50 (≈ 87.3 µM) | 50 (≈ 87.3 µM) | 0.08 (≈ 0.14 µM) | 0.08 (≈ 0.14 µM) | 0.4 (≈ 0.698 µM) | 0.4 (≈ 0.698 µM) | COc1ccc(F)cc1[C@H](Cn1c(=O)n([C@@H](C)C(=O)NC(C)C)c(=O)c2c(C)c(-n3nccn3)sc21)OC(C)C [Compound I-057] | –
10 (≈ 16.6 µM) | ≥ 10 | > 50 | > 50 | 50 (≈ 83.1 µM) | 2 (≈ 3.32 µM) | 10 (≈ 16.6 µM) | 2 (≈ 3.32 µM) | – | – | – | – | – | – | – | – | COCCO[C@@H](Cn1c(=O)n(C(C)(C)C(=O)NC(C)C)c(=O)c2c(C)c(-n3cccn3)sc21)c1cc(F)ccc1OC [Compound I-163] | –

More lines, now with the values behind:

Compound | IC90 (Rhizoctonia solani (Rs); [5]) [µg/mL] | IC90 (Diplodia maydis (Dm); [6]) [µg/mL] | IC90 (Septoria tritici (St); [7]) [µg/mL] | IC90 [1, 8] [µg/mL] | IC90 [2, 9] [µg/mL] | IC90 [3, 10] [µg/mL] | IC90 (Botrtyis cinerea (Bc); [11]) [µg/mL] | IC90 [4, 12] [µg/mL] | IC90 (Rhizoctonia solani (Rs); [13]) [µg/mL] | IC90 (Diplodia maydis (Dm); [14]) [µg/mL] | IC90 (Septoria tritici (St); [15]) [µg/mL] | IC90 [1, 16] [µg/mL] | IC90 [2, 17] [µg/mL] | IC90 [3, 18] [µg/mL] | IC90 (Botrtyis cinerea (Bc); [19]) [µg/mL] | IC90 [4, 20] [µg/mL] | also measured
COc1ccc(F)cc1[C@H](Cn1c(=O)n([C@@H](C)C(=O)N(C)C(C)C)c(=O)c2c(C)c(-n3cccn3)sc21)OCCC#N [Compound I-243] | 2 (≈ 3.35 µM) | 10 (≈ 16.8 µM) | ≥ 50 | > 50 | 2 (≈ 3.35 µM) | 2 (≈ 3.35 µM) | 10 (≈ 16.8 µM) | 50 (≈ 83.8 µM) | – | – | – | – | – | – | – | – | –
COc1ccc(F)cc1[C@H](Cn1c(=O)n([C@@H](C)C(=O)NC2CCC2)c(=O)c2c(C)c(-n3nccn3)sc21)OCCO [Compound I-091] | – | – | – | – | – | – | – | – | 2 (≈ 3.41 µM) | 2 (≈ 3.41 µM) | > 50 | > 50 | ≥ 2 | 0.08 (≈ 0.136 µM) | 0.4 (≈ 0.682 µM) | 0.4 (≈ 0.682 µM) | –
CC(=O)Oc1ccc(F)cc1[C@@H](Cn1c(=O)n(C(C)(C)C(=O)NC(C)C)c(=O)c2c(C)c(-n3nccn3)sc21)OCCC#N [Compound I-334] | – | – | – | – | – | – | – | – | – | – | – | – | – | – | – | – | IC90 (Rhizoctonia solani (Rs); concentration sufficient to ≥90% inhibition of growth, 48 hours vs 2% DMSO control, read-out: Compound Concentration (ppm) for ≥90% inhibition, Rs): > 50 µg/mL; IC90 (Diplodia maydis (Dm); concentration sufficient to ≥90% inhibition of growth, 48 hours vs 2% DMSO control, read-out: Compound Concentration (ppm) for ≥90% inhibition, Dm): > 50 µg/mL; IC90 (Septoria tritici (St); concentration sufficient to ≥90% inhibition of growth, 48 hours vs 2% DMSO control, read-out: Compound Concentration (ppm) for ≥90% inhibition, St): > 50 µg/mL; IC90 ([1]; concentration sufficient to ≥90% inhibition of growth, 48 hours vs 2% DMSO control, read-out: Compound Concentration (ppm) for ≥90% inhibition, Pc): > 50 µg/mL; IC90 ([2]; concentration sufficient to ≥90% inhibition of growth, 48 hours vs 2% DMSO control, read-out: Compound Concentration (ppm) for ≥90% inhibition, Cg): > 50 µg/mL; IC90 ([3]; concentration sufficient to ≥90% inhibition of growth, 48 hours vs 2% DMSO control, read-out: Compound Concentration (ppm) for ≥90% inhibition, Fm): 50 µg/mL (≈ 79.9 µM); IC90 (Botrtyis cinerea (Bc); concentration sufficient to ≥90% inhibition of growth, 48 hours vs 2% DMSO control, read-out: Compound Concentration (ppm) for ≥90% inhibition, Bc): > 50 µg/mL; IC90 ([4]; concentration sufficient to ≥90% inhibition of growth, 48 hours vs 2% DMSO control, read-out: Compound Concentration (ppm) for ≥90% inhibition, Fv): > 50 µg/mL
Cc1c(-n2nccn2)sc2c1c(=O)n(C(C)(C)C(=O)NC(C)C)c(=O)n2C[C@H](OC(C)C)c1cc(F)ccc1CCC#N [Compound I-277] | 0.08 (≈ 0.131 µM) | 2 (≈ 3.28 µM) | > 50 | > 50 | 0.4 (≈ 0.656 µM) | 0.08 (≈ 0.131 µM) | 0.4 (≈ 0.656 µM) | 0.08 (≈ 0.131 µM) | – | – | – | – | – | – | – | – | –
COc1ccc(F)cc1[C@H](Cn1c(=O)n(C(C)(C)C(=O)N2CCCC2)c(=O)c2c(C)c(-n3nccn3)sc21)OCC(C)C [Compound I-028] | – | – | – | – | – | – | – | – | 0.08 (≈ 0.131 µM) | ≥ 0.08 | ≥ 2 | > 50 | 0.08 (≈ 0.131 µM) | 0.08 (≈ 0.131 µM) | 0.4 (≈ 0.653 µM) | 0.4 (≈ 0.653 µM) | –
Cc1c(-n2nccn2)sc2c1c(=O)n(C(C)(C)C(=O)NC(C)C)c(=O)n2C[C@H](OCCC#N)c1cc(F)ccc1O [Compound I-282] | 0.4 (≈ 0.685 µM) | ≥ 10 | > 50 | 10 (≈ 17.1 µM) | 2 (≈ 3.43 µM) | 0.4 (≈ 0.685 µM) | 2 (≈ 3.43 µM) | 2 (≈ 3.43 µM) | – | – | – | – | – | – | – | – | –
COc1ccccc1[C@H](Cn1c(=O)n(C(C)(C)C(=O)NCC(C)C)c(=O)c2c(C)c(-n3nccn3)sc21)OC1CCOCC1 [Compound I-041] | – | – | – | – | – | – | – | – | 0.08 (≈ 0.128 µM) | ≥ 2 | > 10 | > 50 | 2 (≈ 3.2 µM) | 0.08 (≈ 0.128 µM) | 0.4 (≈ 0.64 µM) | 2 (≈ 3.2 µM) | –
